According to a melting point compilation (Tetko et al.; mined from patent text by program, amines drawn as free bases though some values may be those of a salt):

| Structure (SMILES) | melting point [°C] |
| --- | --- |
| CCOC(=O)N1CCN(c2cc3nc(C(C)(C)C)sc3cc2N=C=S)CC1 | 131 to 134 |
| Cc1ccc(C2COc3c(C)c(C)c(Br)c(C)c32)cc1 (stereo unspecified) | 108 to 109 |
| Cn1nc(Sc2cc(C(F)(F)F)ccc2C(=O)O)n(C)c1=O | 211 |
| CS(=O)(=O)c1ccc2ccn(C3CCN(CCc4ccc(F)cc4)CC3)c2c1 | 133 to 135 |
| O=C1CCC(c2ccc(O)cc2)N1 (stereo unspecified) | 183 |
| FC(F)(F)c1cccc2c1[nH]c1c2ccc2cc[nH]c21 | > 250 |
| NNc1nc(F)c(C(F)(F)F)cc1Cl | 104 to 106 |
| Nc1nc2c(c3[nH]cnc13)CCCC2 | > 300 |
| Cc1cccc(C)c1OC(C)C(=O)OC1CC(O)C=C2C=CC(C)C(CCC3CC(O)CC(=O)O3)C21 (mixture of isomers) | 85 to 88 |
| Cn1cc(C(=O)C(=O)Cl)c2ccccc21 | 122 to 133 |
| CCSc1cccc2c1CC(=O)N2 | 143 to 144 |
| O=c1[nH]c2c(cc1S(=O)(=O)c1ccccc1)CCc1cc[nH]c1-2 | 410 |
| Cc1c2[nH]c(C(=O)O)cc(=O)c2cc2c(=O)cc(C(=O)O)[nH]c12 | > 310 |
| O=C(Nc1cc(Cl)c([N+](=O)[O-])cc1O)c1ccccc1 | < 250 |
| O=[N+]([O-])c1ccc(C(Cl)Cl)cc1 | 44 to 46 |
| CC1=NN=C(c2ccc([N+](=O)[O-])cc2)c2cc(Cl)ccc2C1 | 199 to 203 |
| CN(C)C=CC(=O)C(=O)c1ccccc1 | 88 |
| CC1=CC(=O)C(=NNc2ccc(C#N)cc2)C(=O)O1 | 300 |
| O=C(CC(F)=C(F)F)Nc1cccc(C(=O)O)c1 | 252 to 255 |
| N#CC(=CNc1ccccc1)Cc1ccc2c(c1)OCO2 | 150 to 151 |
| CCCCCCOc1ccc(CCC(=O)OC2CCC3C4CCC5=CC(=O)CCC5C4CCC23C)cc1 (stereo unspecified) | 52 to 53 |

| Structure (SMILES) | melting point [°C] |
| --- | --- |
| CC1Oc2ccc(CN3CC=C(c4ccccc4)CC3)cc2NC1=O (stereo unspecified) | 248 to 255 |
| CNC(=O)N(O)C(C)c1cc2cc(Cl)ccc2[nH]1 (stereo unspecified) | 159 to 160 |
| COc1cc([N+](=O)[O-])ccc1COP(N)(=O)N(CCCl)CCCl (stereo unspecified) | 102 to 104 |
| N#Cc1cc[nH]c1-c1ccc(Cl)cc1 | 165 to 166 |
| CN(C)c1ccc(-c2ccc3c(c2)CC[C@H]2N(C)C(=O)CC[C@]32C)cc1 | 197 to 202 |
| CO/C=C1/C(=O)NC(=O)c2cc(Br)ccc21 | 242 to 243 |
| COC(=O)c1c(C(F)F)nc(C(F)(F)F)c(C(C#N)=C2OCCO2)c1CC(C)C | 121 to 122 |
| CCCCSc1nc(N(C)C(C)=O)c(C#N)s1 | 40 |
| O=C(NCCCCN1CCC(c2ccc3c(c2)CCCC3)CC1)c1ccc(NC(=O)c2ccc(Cl)cc2)cc1 | 285 |
| Cc1ccc(N(c2ccccc2)c2ccc(-c3ccc(-c4ccc(N(c5ccccc5)c5ccc(C)cc5)cc4)cc3)cc2)cc1 | 167 to 168 |
| Cc1ccc(CC(C)(C)C(=O)C=CN(C)C)cc1 | 74 to 76 |
| COC1=CC(=O)C2CC(O[Si](C)(C)C)=CC(OC)C2C1=O (stereo unspecified) | 108 to 110 |
| N#CCC(C#N)S(=O)(=O)c1ccc(Cl)cc1 (stereo unspecified) | 130 to 137 |
| O=C(O)C(=O)c1ccc(F)c(Br)c1 | 68 to 73 |
| CCCCCCCCCCCCCCCCS(=O)(=O)Nc1ccc(OC)c(NC(=O)CC(=O)C2(C)COC(C)(C)OC2)c1 | 68 to 70 |
| CN(C)S(=O)(=O)n1cc(-c2ccc(Cl)cc2Cl)nc1C(N)=S | 184 to 187 |
| CN(C)c1ncc(-c2nc3cccc(CO)c3o2)cn1 | 212 to 215 |
| N[C@H]1C=C(C(=O)O)OC1 | 193 to 195 |
| COc1cc(OP(=O)(OC)OC)c(C(=O)c2ccccc2)s1 | 76 |
| CC(=O)SC1CC(=O)N1C(Cl)C(=O)OCc1ccc([N+](=O)[O-])cc1 (stereo unspecified) | 72 to 73 |

The next lines start with the values.

| melting point [°C] | Structure (SMILES) |
| --- | --- |
| 150 to 151 | CC(C)c1ccc(OC(Cc2ccc(OCCNC(=O)c3ccc(-c4ccc(N(C)C)cn4)cc3)cc2)C(=O)O)cc1 (stereo unspecified) |
| 246 to 249 | CCOC(=O)c1cnn(C)c1C(=O)Nc1ccn2nc(-c3cccc(F)c3)nc2c1 |
| 167 to 171 | COC(=O)c1c(C(=O)O)c(O)c2cc(OC)c(OC)c(OC)c2c1-c1cc(OC)c(OC)c(OC)c1 |
| 120 to 121 | O=Cc1c(OCc2ccccc2)ccc2ccccc12 |
| 143 to 145 | CCOc1ccnc(C(C)NC(=O)Nc2ccc(Br)cn2)c1F (stereo unspecified) |
| 110 to 111 | CCCCCCOC1=c2ccc3c(c2=C(c2ccc4c(c2)OCO4)C(C)(C(=O)OC)C1(C)C(=O)OC)OCO3 (stereo unspecified) |
| 267 | N#Cc1ccc(C(=O)Nc2cccc(C(=O)O)c2)cc1 |
| > 300 | COc1cccc(-c2cnc3c(-c4cc(-c5ccccc5)cs4)cnn3c2O)c1 |
| 199 to 200 | O=C(N[C@H](Cc1ccc(F)cc1)[C@@H](O)c1ccc(F)cc1)c1cccc2ccccc12 (racemic) |
| 143 to 146 | CC1(C)CCC(C)(C)c2cc(N(Cc3ccc(F)cc3)C(=O)Nc3ccc(C(=O)O)cc3)ccc21 |
| 260 to 262 | CCOC(=O)Nc1ccc(-c2c[nH]c(=O)cn2)cc1 |
| 129 to 132 | COc1ccc(S(=O)(=O)N(CCN2CCC(C(=O)c3ccc(F)cc3)CC2)c2cccc(OC)c2)cc1 |
| 276 to 284 | O=C1c2ccccc2-c2cc(O)c(Cl)c(Cl)c21 |
| 163 to 164 | CCCc1c(OC(C(=O)O)c2ccc(Cl)cc2)ccc(C(C)=O)c1O (stereo unspecified) |
| 166 to 168 | CC(c1oc2ccccc2c(=O)c1-c1cccc(F)c1)n1ccc2ncnc(Cl)c21 (stereo unspecified) |
| 73 to 76 | O=C(O)Cc1cc(Cl)cc(Cl)c1OCCc1ccccc1 |
| 118 to 120 | CCOC(=O)c1c(CN(CC)CC)nc2sc3c(c2c1-c1ccc(OC)c(OC)c1)CCN=C3 |
| 118 to 119 | COc1cc(CCC(=O)O)ccc1OCCCc1cn(-c2ccc(C(F)(F)F)cn2)nc1C(C)C |
| 199 to 201 | Nc1ccccc1C1=NN(c2ccc(Cl)cc2)C(=O)C1 |
| 138 to 140 | CCOc1ccc(C(=O)Nc2ccc(C(C)(C)C#N)cc2)cc1OCC |
| > 280 | CNN(NC)C(=O)Nc1cccc2c1C(=O)c1c-2n[nH]c1-c1ccc(C)s1 |
| 205 to 206 | NC(=O)c1c(N2CCN(Cc3ccccc3)CC2)nn2c(-c3ccncc3)ccnc12 |
| 171 | Cc1c(-c2ccc(C3=CCN(C(=O)OC(C)(C)C)CC3)cc2)nc2n1CCc1ccccc1C2OC1CCN(C)CC1 (stereo unspecified) |
| 164 to 165 | C=CC(=O)Oc1ccc(Cl)c2c1Sc1ccccc1C2 |
| 200 to 202 | COc1cn(-c2ccc(-c3c(C)noc3C)cc2F)nc(-c2ccnn2-c2ccccc2)c1=O |
| 219 to 221 | O=C(Nc1ccccc1)NC(Cc1c[nH]c2ccccc12)C(=O)NCc1cc(C(F)(F)F)cc(C(F)(F)F)c1 (stereo unspecified) |
| 201 to 205 | COc1ccc(-c2ccc(C(N)=O)cc2)cc1-c1cccc([N+](=O)[O-])c1 |
| 215 to 220 | CC12CCC3c4ccc(O)cc4CC(Sc4ccc(C=CC(=O)O)cc4)C3C1CCC2O (stereo unspecified) |

| melting point [°C] | Structure (SMILES) |
| --- | --- |
| 166 | COc1cc(Oc2ccc(C(=O)N(C3CCCCC3)C3CCCC3)cc2)cc(OC)c1OC |
| 158 to 159 | CC1(C2CC2)OC(=O)Nc2ccc(-c3cccc(Cl)c3)cc21 (stereo unspecified) |
| 180 to 182 | COc1ccc(CNc2cc(C(N)=O)c([N+](=O)[O-])cc2[N+](=O)[O-])cc1Cl |
| 218 to 220 | Cc1cccc(C(=O)NCc2cccc3c2C(=O)N(C2CCC(=O)NC2=O)C3=O)c1 (stereo unspecified) |
| 190 to 191 | Cc1cnc(C2=NC(C)(C(C)C)C(=O)N2)c(C(O)(c2cccs2)c2cccs2)c1 (stereo unspecified) |
| 101 | N#Cc1ccc(OCc2ccccc2)c(O)c1 |
| 196 to 198 | N#CC(c1ccnc(OCc2ccccc2)n1)c1nc2ccccc2s1 (stereo unspecified) |
| 283 to 285 | CC(C)c1ccc(-n2ccn(-c3cccc(C(=O)O)c3)c2=O)cc1 |
| 250 to 253 | Cn1nc2nc(C(C)(C)C)[nH]c(=O)c2c1N=Cc1ccccc1 |
| 247 | COc1ccc(-c2[nH]nc3c2C(=O)c2c(NC(=O)NNC(=O)c4ccc(N)cc4)cccc2-3)cc1 |
| 110 | BrCc1nc(-c2ccccc2)nc2ccccc12 |
| 51 | CC1(C)CCSc2ccc(-c3cc(-c4ccc(C(=O)O)cc4)ccc3-c3ccccc3)cc21 |
| 102 to 104 | CCOc1ccc(S(=O)(=O)N(Cc2ccc(C(=O)OC)cc2)[C@@H](CC)c2ccccc2)cc1 |
| 164 to 167 | Cn1c(COc2ccc(CC3SC(=O)NC3=O)cc2)nc2ccc(Oc3ccc(NC(=O)NC45CC6CC(CC(C6)C4)C5)cc3)cc21 (stereo unspecified) |
| 120 to 121 | Cc1ccccc1CNC(=O)c1ccc2cnccc2n1 |
| 209 to 210 | COc1ccc(F)cc1C(=O)NC1COc2cc(OC)c(S(N)(=O)=O)cc2C1 (stereo unspecified) |
| 99 to 100 | CCOC(=O)c1cc2c3ccccc3n(C)c2s1 |
| 228 | Cn1cnnc1COc1nn2c(-c3ccccc3F)nnc2cc1C1CCC1 |
| 165 to 167 | CN1C(=O)CCC2(C)c3ccc(S(=O)(=O)c4ccccc4)cc3CCC12 (single isomer, unassigned; (+)) |
| 95 to 98 | CCc1oc2ccccc2c1C(=O)c1ccc(OCCOS(=O)(=O)c2ccc(C)cc2)cc1 |
| 210 to 211 | COc1ccc(C=CC(=O)Nc2cnc3cc(C)c(C)cc3c2-c2ccccc2Cl)cc1OC |
| 129 to 130 | Cn1ccc(C(=O)O)c(OCc2ccccc2)c1=O |
| 198 to 200 | Cc1ccc(-c2cccc(/C=C/C(=O)Nc3ccc(Cn4ccnc4)cc3)c2)cc1 |
| 223 to 225 | COc1ccc2c(c1)c1c3c(c(-c4ccccc4OC)cc1n2CCCO)C(=O)NC3=O |
| 218 to 219 | CS(=O)c1cccc(-n2c(=O)n(Cc3ccncc3)c(=O)c3cccnc32)c1 (stereo unspecified) |
| 175 to 176 | Cc1cc(C)cc(Nc2ncc(-c3ccccc3)s2)c1 |
| 154 to 156 | CCOC(=O)C1=C(C)NC(=O)N(CCCN(C)Cc2ccccc2)C1c1cccc(Cl)c1Cl (stereo unspecified) |
